Where “and” joins values, the source holds several entries; their conditions need not be identical. Equal values may be shown once.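 Method: 48-hour compound exposure of cells in 96-well plates, five concentrations, linear interpolation of endpoints. GI50 = concentration required for 50% inhibition of growth. The concentration for full growth arrest is given as TGI.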
How the values were obtained:
Assay in all cases: inhibition of tumour cell growth, NCI panel, 48 h
SNB-75 CNS = system: SNB-75 CNS
SK-MEL-28 melanoma = system: SK-MEL-28 melanoma
OVCAR-3 ovarian = system: OVCAR-3 ovarian
CCRF-CEM leukemia = system: CCRF-CEM leukemia
NCI-H23 lung = system: NCI-H23 lung
OVCAR-5 ovarian = system: OVCAR-5 ovarian
CAKI-1 renal = system: CAKI-1 renal
UACC-257 melanoma = system: UACC-257 melanoma
MALME-3M melanoma = system: MALME-3M melanoma
HL-60(TB) leukemia = system: HL-60(TB) leukemia

Compound	GI50 (SNB-75 CNS) [µM]	TGI (SNB-75 CNS) [µM]	GI50 (SK-MEL-28 melanoma) [µM]	TGI (SK-MEL-28 melanoma) [µM]	GI50 (OVCAR-3 ovarian) [µM]	TGI (OVCAR-3 ovarian)	GI50 (CCRF-CEM leukemia)	TGI (CCRF-CEM leukemia) [µM]	GI50 (NCI-H23 lung) [µM]	TGI (NCI-H23 lung) [µM]	GI50 (OVCAR-5 ovarian)	TGI (OVCAR-5 ovarian) [µM]	GI50 (CAKI-1 renal) [µM]	TGI (CAKI-1 renal) [µM]	GI50 (UACC-257 melanoma)	TGI (UACC-257 melanoma) [µM]	GI50 (MALME-3M melanoma) [µM]	TGI (MALME-3M melanoma) [µM]	GI50 (HL-60(TB) leukemia) [µM]	TGI (HL-60(TB) leukemia)
Nc1nc2c(ccc3ccccc32)s1	36.8	> 100	> 100	> 100	43.4	> 100 µM	48.1 µM	> 100	> 100	> 100	> 100 µM	> 100	26.7	67.5	> 100 µM	> 100	61.9	> 100	–	–
O=C(/C(=N/Nc1ccccc1)c1ccc([N+](=O)[O-])cc1)c1ccc([N+](=O)[O-])cc1	–	> 100	–	> 100	–	> 100 µM	–	–	–	> 100	–	> 100	–	> 100	–	> 100	–	> 100	–	–
CC(=O)O[C@H](C[C@H](C(C)C)N(C)C(=O)[C@@H](NC(=O)[C@H]1CCCCN1C)C(C)C)c1cccc(C(=O)N[C@@H](Cc2ccccc2)C[C@H](C)C(=O)O)n1	0.00695	> 25	–	–	0.00707	–	0.0175 µM	> 25	0.051	> 25	0.248 µM	> 25	0.0686	> 25	–	–	0.0164	> 25	0.0069	0.0321 µM
Cc1cc2c(cc1CO)N1Cc3cc(C)c(CO)cc3N(C2)C1	–	> 100	–	> 100	–	> 100 µM	–	> 100	–	> 100	–	–	–	–	–	–	–	–	–	> 100 µM
Nc1ccccc1C(=O)NC(=O)Nc1ccc(Oc2ncc(Br)cn2)c(Cl)c1	0.0035	–	–	18.3	–	–	0.0249 µM and < 0.0246 µM	1.9	–	4.86	–	51.7	–	1.72	–	25.3	–	11.6	0.00489	0.0451 µM and 0.232 µM
COc1cc(C2c3cc4c(cc3[C@@H](N(C)c3ccc(N(C)C)cc3)C3COC(=O)C23)OCO4)cc(OC)c1O (some centres not stated)	–	42.3	–	27.3	–	0.516 µM	–	35.5	–	4.92	–	31.3	–	25	–	18	–	–	–	7.84 µM
c1cc[c]([Sn]([O]c2cccc3cccnc23)([O]c2cccc3cccnc23)[c]2ccccc2)cc1	0.419	1.45	–	–	–	–	0.183 µM	0.44	0.209	0.5	–	–	0.179	0.383	–	–	–	–	0.144	0.351 µM
O=C([CH-]C(=O)c1ccccc1)c1ccccc1.O=C([CH-]C(=O)c1ccccc1)c1ccccc1.O=C([CH-]C(=O)c1ccccc1)c1ccccc1.[Cl-].[Zr+4]	3.34	30.1	13.2	36.7	10.6	39.4 µM	–	–	16.9	99.7	53.8 µM	> 100	12.4	63.8	17.2 µM	73.1	19.5	60.4	–	–
O=C(CN(/C=C/C(=O)C(F)(F)F)c1ccccc1)c1ccc(Cl)cc1	–	–	20.7	44.6	21.6	46.7 µM	21 µM	49.9	17.1	35.4	22.2 µM	46.4	17.8	42.5	19.9 µM	45.9	18.1	40.7	–	–
S=C(CSc1ccccc1)Nc1cccc2ccccc12	–	> 100	–	> 100	–	88.7 µM	–	–	–	> 100	–	> 100	–	> 100	–	68.3	–	> 100	–	> 100 µM
O=c1c2cccnc2ncn1CCCN1CCCC1	–	> 100	–	–	–	> 100 µM	–	> 100	–	> 100	–	> 100	–	> 100	–	–	–	–	–	–
CC1(C)C(=O)C(=Cc2ccco2)C1=O	–	> 100	–	> 100	–	–	–	> 100	–	> 100	–	> 100	–	> 100	–	> 100	–	> 100	–	> 100 µM
COc1cc(-c2cc3ncccc3c3[nH]c(=O)c4cccnc4c23)cc(OC)c1OC	0.271	62.9	0.957	> 100	0.329	> 100 µM	0.623 µM	> 100	2.3	> 100	> 100 µM	> 100	0.663	> 100	–	–	16.2	> 100	–	–
Clc1ccc(OCc2nnc3n2N=C(c2ccccc2)CS3)c(Cl)c1	–	19.6	–	> 100	–	–	–	> 100	–	> 100	–	> 100	–	> 100	–	> 100	–	> 100	–	> 100 µM
COc1cc2nc(-c3cccc4cccnc34)nc(NC3CCN(Cc4ccccc4)CC3)c2cc1OC	1.84	3.56	1.82	3.6	1.52	3.08 µM	0.576 µM	2.83	1.37	3.11	1.3 µM	2.73	1.37	2.98	2.07 µM	4.1	1.83	3.51	–	–
COC(=O)/C(=C/c1ccc(OC)cc1)C(C(=O)O)=C1CCCCC1	–	> 100	–	–	–	–	–	> 100	–	> 100	–	> 100	–	> 100	–	> 100	–	–	–	> 100 µM
COC(=O)CC(=O)NCC1=CCC(=O)CC1	–	> 100	–	> 100	–	> 100 µM	–	> 100	–	> 100	–	–	–	> 100	–	> 100	–	> 100	–	> 100 µM
CCN(CC)c1ccc(N=Nc2ccc(-c3nc4cccn(C)c-4n3)cc2)cc1	–	38.9	–	–	–	23.1 µM	–	19.8	–	34.7	–	26.3	–	41.5	–	42.3	–	26.8	–	4.79 µM
COC(=O)CC(C(C(C)=O)C(=O)OCc1ccccc1)N1C(=O)OC(c2ccccc2)C1c1ccccc1 (configuration not stated)	–	–	–	> 100	–	75.3 µM and > 100 µM	–	> 100	–	> 100	> 100 µM and 34.3 µM	> 100	–	> 100	23.6 µM and 55.3 µM	> 100	–	> 100	–	> 100 µM
